# Columns and labels:
# GluR3 L507Y = biological target: T1, GluR3 L507Y (Rattus norvegicus, UniProt P19492, L507Y); assay: Responses to quisqualate and AMPA and effect of cyclothiazide (outside-out patch); type: cell-based
# T1 construct: expressed in transfected cells; host or cells: HEK293, transient, pCDNA3
# [1] = tested on: T504A, E511K or their combined exchange; type: cell-based, rat
# R3(R6S1) = assay: Effect of cyclothiazide on the peak response to glutamate (outside-out patch); type: cell-based, rat; details: 100 µM cyclothiazide added to the agonist solution, n=10
# GluR3flip = biological target: T2, GluR3flip (Rattus norvegicus, UniProt P19492); assay: Block of desensitization by cyclothiazide added to the agonist solution (outside-out patch); type: cell-based; details: cyclothiazide 100µM added to the agonist solution (10 mM glutamate)
# T2 construct: expressed in transfected cells; host or cells: HEK293 (ATCC CRL 1573), transient, pcDNA3
# R6TM1R3 = biological target: T3, R6TM1R3 (Rattus norvegicus, UniProt P19492+P42260, A582S/A630S/C576V/C595R/D598Q/D600P/D669E/D672E/E603P/E625D/E665V/E681A/F612L/G615S/H593E/I581V/I639V/INS589HLED/INS599P/K629R/K679E/L568V/L569F/L572I/L608I/L609F/L619F/L626I/M627S/N596D/N605E/P592E/S624C/T607G/T633G/V580L/V601D/V602P/V616L/Y566C/Y590N); assay: Effect of cyclothiazide on the peak response to glutamate (outside-out patch); type: cell-based; details: 100 µM cyclothiazide added to the agonist solution, n=13
# T3 construct: the entire extracellular N-terminal region of GluR3flip was substituted by the corresponding region of GluR6; expressed in transfected cells; host or cells: HEK293, transient
# R6TM1R3(Y521L) = biological target: T4, R6TM1R3(Y521L) (Rattus norvegicus, UniProt P19492+P42260, A582S/A630S/C576V/C595R/D598Q/D600P/D669E/D672E/E603P/E625D/E665V/E681A/F612L/G615S/H593E/I581V/I639V/INS589HLED/INS599P/K629R/K679E/L568V/L569F/L572I/L608I/L609F/L619F/L626I/M627S/N596D/N605E/P592E/S624C/T607G/T633G/V580L/V601D/V602P/V616L/Y521L/Y566C/Y590N); assay: Responses to kainate and effect of cyclothiazide (outside-out patch); type: cell-based; details: glutamate evoked current in the presence of 100 µM cyclothiazide
# T4 construct: the entire extracellular N-terminal region of GluR3flip was substituted by the corresponding region of GluR6; expressed in transfected cells; host or cells: HEK293, transient
# GluR3-S1 chimeras = assay: Responses to saturating kainate concentrations compared with glutamate (outside-out patch); type: cell-based, rat; details: saturating kainate concentrations (5-10 mM)
# T1 sequence (P19492 23-888 isoform P19492-2 L507Y limits assumed): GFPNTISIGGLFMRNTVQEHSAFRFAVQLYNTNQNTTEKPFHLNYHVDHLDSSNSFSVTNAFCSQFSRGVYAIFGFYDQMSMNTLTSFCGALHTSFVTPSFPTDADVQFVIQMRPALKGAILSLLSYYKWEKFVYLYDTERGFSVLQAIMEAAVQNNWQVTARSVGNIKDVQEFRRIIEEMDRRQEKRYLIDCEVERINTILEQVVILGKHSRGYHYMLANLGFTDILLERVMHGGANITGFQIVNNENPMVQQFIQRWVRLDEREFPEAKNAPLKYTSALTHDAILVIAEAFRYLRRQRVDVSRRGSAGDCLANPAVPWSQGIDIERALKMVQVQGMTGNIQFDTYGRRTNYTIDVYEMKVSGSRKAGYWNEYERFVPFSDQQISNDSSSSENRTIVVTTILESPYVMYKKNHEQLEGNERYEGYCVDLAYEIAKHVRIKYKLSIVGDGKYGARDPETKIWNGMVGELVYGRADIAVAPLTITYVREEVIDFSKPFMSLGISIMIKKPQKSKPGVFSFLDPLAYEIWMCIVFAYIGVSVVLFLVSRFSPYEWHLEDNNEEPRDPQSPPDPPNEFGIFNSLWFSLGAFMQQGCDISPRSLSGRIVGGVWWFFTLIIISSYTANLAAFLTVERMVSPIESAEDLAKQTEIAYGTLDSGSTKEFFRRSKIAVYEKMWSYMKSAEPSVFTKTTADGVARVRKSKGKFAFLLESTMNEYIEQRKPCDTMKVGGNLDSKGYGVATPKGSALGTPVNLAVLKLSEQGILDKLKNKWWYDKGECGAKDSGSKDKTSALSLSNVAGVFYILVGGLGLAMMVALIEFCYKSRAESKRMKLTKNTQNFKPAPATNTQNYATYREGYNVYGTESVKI
# T4 sequence (P42260+P19492 fused with the stated changes): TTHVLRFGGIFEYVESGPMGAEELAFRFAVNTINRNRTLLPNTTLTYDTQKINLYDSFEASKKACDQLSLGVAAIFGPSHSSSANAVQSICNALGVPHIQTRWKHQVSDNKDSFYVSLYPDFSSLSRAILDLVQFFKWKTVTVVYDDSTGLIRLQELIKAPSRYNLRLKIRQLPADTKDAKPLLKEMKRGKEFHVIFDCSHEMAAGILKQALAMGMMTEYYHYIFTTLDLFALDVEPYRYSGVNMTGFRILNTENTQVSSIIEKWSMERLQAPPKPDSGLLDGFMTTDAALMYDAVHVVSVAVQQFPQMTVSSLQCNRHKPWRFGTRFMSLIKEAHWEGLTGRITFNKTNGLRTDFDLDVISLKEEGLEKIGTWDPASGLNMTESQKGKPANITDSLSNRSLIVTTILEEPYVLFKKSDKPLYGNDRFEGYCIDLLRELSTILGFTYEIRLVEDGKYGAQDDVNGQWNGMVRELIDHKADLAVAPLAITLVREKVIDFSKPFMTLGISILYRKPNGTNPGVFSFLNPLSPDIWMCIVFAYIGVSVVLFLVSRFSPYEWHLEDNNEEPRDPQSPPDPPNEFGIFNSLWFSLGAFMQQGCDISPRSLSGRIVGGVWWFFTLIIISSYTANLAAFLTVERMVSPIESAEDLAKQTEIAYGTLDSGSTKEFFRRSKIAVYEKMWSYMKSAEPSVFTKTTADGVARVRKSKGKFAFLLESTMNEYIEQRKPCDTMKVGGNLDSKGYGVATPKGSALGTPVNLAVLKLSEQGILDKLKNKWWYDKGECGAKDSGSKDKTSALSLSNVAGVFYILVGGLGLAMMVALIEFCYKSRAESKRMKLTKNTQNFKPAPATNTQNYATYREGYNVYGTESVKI
# T2 sequence (P19492 23-888 isoform P19492-2 limits assumed): as the sequence (P19492 23-888 isoform P19492-2 L507Y limits assumed) above, with Y485L counted along it
# T3 sequence (P42260+P19492 fused with the stated changes): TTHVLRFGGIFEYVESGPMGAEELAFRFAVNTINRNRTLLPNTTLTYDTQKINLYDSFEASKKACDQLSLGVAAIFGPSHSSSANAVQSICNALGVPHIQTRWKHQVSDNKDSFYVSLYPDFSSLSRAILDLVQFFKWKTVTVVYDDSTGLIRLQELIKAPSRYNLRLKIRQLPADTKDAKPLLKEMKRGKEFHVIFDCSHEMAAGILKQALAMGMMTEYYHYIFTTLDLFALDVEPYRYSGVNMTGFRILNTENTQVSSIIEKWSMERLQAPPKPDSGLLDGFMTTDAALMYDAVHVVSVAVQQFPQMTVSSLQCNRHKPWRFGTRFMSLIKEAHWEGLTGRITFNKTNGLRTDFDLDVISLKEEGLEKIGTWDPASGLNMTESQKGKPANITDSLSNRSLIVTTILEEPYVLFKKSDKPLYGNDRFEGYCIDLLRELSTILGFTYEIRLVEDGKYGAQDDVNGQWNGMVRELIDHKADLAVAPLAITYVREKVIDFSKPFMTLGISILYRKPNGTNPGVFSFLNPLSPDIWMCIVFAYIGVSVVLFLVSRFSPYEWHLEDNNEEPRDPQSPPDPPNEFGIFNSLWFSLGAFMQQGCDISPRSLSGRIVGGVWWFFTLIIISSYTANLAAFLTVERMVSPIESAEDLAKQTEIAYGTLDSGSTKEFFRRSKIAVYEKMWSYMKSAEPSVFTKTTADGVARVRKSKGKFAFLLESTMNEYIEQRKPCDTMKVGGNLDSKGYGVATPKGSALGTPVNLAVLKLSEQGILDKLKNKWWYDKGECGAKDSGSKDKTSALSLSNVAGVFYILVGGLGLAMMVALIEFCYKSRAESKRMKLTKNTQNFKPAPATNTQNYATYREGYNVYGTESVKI
compound,measurement,setting,value
"Cc1onc(O)c1CC(N)C(=O)O (racemic) [AMPA, (RS)-alpha-amino-3-hydroxy-5-methyl-4-isoxazoleepropionic acid]",P/S,GluR3 L507Y; agonist 1 mM,1.05±0.03
same,"efficacy of opening, ratio glutamate/agonist",GluR3 L507Y; n=7,0.97±0.03
NS(=O)(=O)c1cc2c(cc1Cl)NC(C1CC3C=CC1C3)NS2(=O)=O (stereo not drawn) [cyclothiazide],effect on desensitization (result in words),[1],completely blocked
same,inhibition of the peak response,R3(R6S1),12±3%
same,P/S values,GluR3flip,~1
same,reduction of peak response,GluR3 L507Y; cyclothiazide (100 µM),9.6±2.7%
same,inhibition at 100 µM,R6TM1R3,14 ± 4%
same,effect on desensitization (result in words),R6TM1R3(Y521L),Desensitization was blocked
C=C(C)[C@H]1CN[C@H](C(=O)O)[C@H]1CC(=O)O [kainate],desensitization of responses (result in words),GluR3-S1 chimeras,essentially non-desensitizing

# From patent EP1121436B1, “NON-DESENSITIZING AMPA-RECEPTORS” (Max-Planck-Gesellschaft zur Förderung der Wissenschaften …, priority 1998, dated 2000)
